Data published in paper PMC6661766, “Antimicrobial, antioxidant and cytotoxic evaluation of diazenyl chalcones along with insights to mechanism of interaction by molecular docking studies” (BMC Chemistry, 2019).
In brackets after ≈: the same amount, converted by molar mass. Like-named read-outs stand apart in the source and are kept apart here.

Columns and labels:
[1] = DPPH scavenging antioxidant assay
Description: The derivatives (C18–C27) were assessed for their antioxidant potential in the presence of the stable free radical DPPH using ascorbic acid as the standard compound [36, 37]. […] The total volume of 200 µl was used in each well for each concentration of the test and standard drug containing 0.004 µg DPPH. The assay was performed in triplicate at all concentrations of each sample and standard compound. DPPH solutions in methanol at the same concentration without test drugs were used as the control. Each concentration of the sample and standard has a different blank. To minimize evaporation, the plate was covered with the lid and wrapped in aluminium foil and kept in the dark place in order to protect the DPPH radical from degradation by light and left for 30 min. After 30 min of incubation, the plate was kept in ELISA reader to measure the absorbance values at 517 nm. The experiment was performed in triplicate. The antioxidant activity of each sample was then calculated as per cent inhibition of DPPH according to the following equation: %decolourationofDPPH=ControlAbs-SampleAbs×100/ControlAbs

B. cereus = assay: Antimicrobial serial tube dilution, MIC and MBC; format: cell-based, Bacillus cereus MTCC 1305; settings: Bacillus cereus; for MIC: read-out: B. cereus MIC; for MBC: read-out: B. cereus MBC
Description: (§1) The synthesized diazenyl chalcones (C18 to C27) and controls (dyes A and E, and chalcone) were assessed for their antimicrobial activity by estimation of MIC and MBC/MFC values. […] The stock solutions of the test compounds and standard drugs having a concentration of 1000 µg ml^−1 were prepared by dissolving the used compounds in DMSO. The nutrient broth/Sabouraud dextrose broth was used for the serial dilution of the test compounds and referenced drugs for bacterial and fungal cultures, respectively. […] The size of the final inoculum in each test tube was taken as 5 × 10^5 CFU ml^−1. The incubation of the test and standard compounds of varying concentrations was done for 24 h at 37 ± 2 °C (bacterial culture) and for 48 h at 37 ± 2 °C (C. albicans) and for 7 d at 25 ± 2 °C (A. fumigatus). The diazenyl chalcones (C18–C27), were further evaluated for their bactericidal/fungicidal activity by estimation of MBC/MFC values. […] For proper mixing of culture media, the plates were shaken gently followed by incubation at the predefined temperature and time as stated earlier, followed by the visual inspection of the plates for signs of microbial growth.

B. subtilis = assay: Antimicrobial serial tube dilution, MIC and MBC; format: cell-based, Bacillus subtilis MTCC 2063
Description: as §1

E. coli = assay: Antimicrobial serial tube dilution, MIC and MBC; format: cell-based, Escherichia coli MTCC 1652
Description: as §1

S. aureus = assay: Antimicrobial serial tube dilution, MIC and MBC; format: cell-based, Staphylococcus aureus MTCC 2901; settings: Staphylococcus aureus; for MIC: 24 h at 37 ± 2 °C, read-out: S. aureus MIC; for MBC: read-out: S. aureus MBC
Description: as §1

S. typhi = assay: Antimicrobial serial tube dilution, MIC and MBC; format: cell-based, Salmonella typhi MTCC 3216; settings: Salmonella enterica, TYPHI; for MIC: 24 h, read-out: S. typhi MIC; for MBC: read-out: S. typhi MBC
Description: as §1

[2] = Escherichia coli, read-out: E. coli MBC
[3] = Escherichia coli; 24 h at 37 ± 2 °C; read-out: E. coli MIC
[4] = Bacillus subtilis, read-out: B. subtilis MBC
[5] = Bacillus subtilis; 24 h at 37 ± 2 °C; read-out: B. subtilis MIC

Row | Compound | MIC (B. cereus; 24 h) | MBC (B. cereus) | MBC (E. coli; [2]) | MIC (E. coli; [3]) | MIC (S. aureus) | MBC (S. aureus) | MIC (S. typhi) | MBC (S. typhi) | MBC (B. subtilis; [4]) | MIC (B. subtilis; [5]) | also measured
1 | O=C1O[C@H]([C@@H](O)CO)C(O)=C1O [Ascorbic acid, ascorbic acid, reference compound] | – | – | – | – | – | – | – | – | – | – | IC50 DPPH [1]: 4.45 µg/mL (≈ 25.3 µM); % inhibition of DPPH ([1]; 1.56 µg ml^−1): 39.22%; % inhibition of DPPH ([1]; 3.12 µg ml^−1): 46.53%; % inhibition of DPPH ([1]; 6.25 µg ml^−1): 80.07%; % inhibition of DPPH ([1]; 12.5 µg ml^−1): 84.09%; % inhibition of DPPH ([1]; 25 µg ml^−1): 87.81%; % inhibition of DPPH ([1]; 50 µg ml^−1): 89.95%; % inhibition of DPPH ([1]; 100 µg ml^−1): 90.31%; IC50 DPPH ([1]; listed as Ascorbic Acid): 4.451 µg/mL (≈ 25.3 µM)
2 | O=C(O)c1cn(C2CC2)c2cc(N3CCNCC3)c(F)cc2c1=O [CIP, ciprofloxacin, reference compound] | 7.81 µg/mL (≈ 23.6 µM) | 15.6 µg/mL (≈ 47.1 µM) | 7.81 µg/mL (≈ 23.6 µM) | 3.9 µg/mL (≈ 11.8 µM) | 1.95 µg/mL (≈ 5.89 µM) | 3.9 µg/mL (≈ 11.8 µM) | 7.81 µg/mL (≈ 23.6 µM) | 7.81 µg/mL (≈ 23.6 µM) | – | – | MIC (B. subtilis; Bacillus subtilis, 24 h, read-out: B. subtilis MIC): 7.81 µg/mL (≈ 23.6 µM); MBC (B. subtilis; Bacillus subtilis; read-out: B. subtilis MBC): 15.6 µg/mL (≈ 47.1 µM)
3 | CC1=C(C(=O)O)N2C(=O)[C@@H](NC(=O)[C@H](N)c3ccc(O)cc3)[C@H]2SC1 [Cefadroxil, cefadroxil, reference compound] | – | 31.2 µg/mL (≈ 86 µM) | – | 31.2 µg/mL (≈ 86 µM) | 15.6 µg/mL (≈ 43 µM) | 31.2 µg/mL (≈ 86 µM) | 125 µg/mL (≈ 344 µM) | 125 µg/mL (≈ 344 µM) | 125 µg/mL (≈ 344 µM) | 62.5 µg/mL (≈ 172 µM) | MIC (B. cereus; 24 h at 37 ± 2 °C): 31.2 µg/mL (≈ 86 µM); MBC (E. coli; Escherichia coli; read-out: E. coli MBC): 31.2 µg/mL (≈ 86 µM)
4 | CO/N=C(\C(=O)N[C@@H]1C(=O)N2C(C(=O)O)=C(COC(C)=O)CS[C@H]12)c1csc(N)n1 [Cefotaxime, cefotaxime, reference compound] | 7.81 µg/mL (≈ 17.1 µM) | 15.6 µg/mL (≈ 34.3 µM) | 7.81 µg/mL (≈ 17.1 µM) | – | 15.6 µg/mL (≈ 34.3 µM) | 31.2 µg/mL (≈ 68.6 µM) | 3.9 µg/mL (≈ 8.56 µM) | 7.81 µg/mL (≈ 17.1 µM) | 7.81 µg/mL (≈ 17.1 µM) | 1.95 µg/mL (≈ 4.28 µM) | MIC (E. coli; Escherichia coli, 24 h, read-out: E. coli MIC, 24 h at 37 ± 2 °C): 7.81 µg/mL (≈ 17.1 µM)
